Test results as given in patent US8524703B2, “Bridgehead amine ring-fused indoles and indolines” (AbbVie Inc., priority 2009, dated 2013).
Entries after “also recorded” stand apart in the source; their conditions may differ.

Key:
[1] = system: primary rat cortical neurons; settings: comparable to that evoked by BDNF; cited from earlier work
[2] = system: Patients with mild-to-moderate Alzheimer's disease; settings: cited from earlier work
[3] = system: SK-N-SH human neuroblastoma cells; assay: Serum Deprivation/JC-1 Mitochondrial Membrane Potential (MMP) Assay; assay type: cell-based; settings: for Emax: read-out: JC-1 max %; for EC50: serum deprivation ~18 hours, JC-1 ratio normalized to peak value for 10 μM dimebolin
Experimental: Tissue Culture: SK-N-SH human neuroblastoma cells obtained from American Type Culture Collection (Rockville, Md.) were maintained in the log phase of growth in Minimal Essential Media (MEM), 10% heat inactivated fetal calf serum and 100 units/mL antibiotic-antimycotic (AA). Cells were cultured and maintained in a humidified incubator at 37° C. under 5% CO2 and 95% air. Cells were trypsinized (0.25%) and subcultured every 3 days and used from 15-18 passages. All cell culture supplies were obtained from Invitrogen (Carlsbad, Calif.).
Serum Deprivation/JC-1 Mitochondrial Membrane Potential (MMP) Assay.
SK-N-SH cells were plated 2-3 days in advance at a concentration of 50,000 cells/well onto collagen coated black-walled 96 well plates (Becton-Dickinson, Bedford, Mass.) in a total volume of 200 μL. On day of experimental treatment, the media containing serum was aspirated from each well and rinsed once with MEM/1% AA without serum. The cells then were incubated overnight in 100 μL of MEM/1% AA (no serum) with and without dimebolin or novel chemical entities overnight for ˜18 hours. The following day, JC-1 dye (5,5′,6,6′-tetrachloro-1,1′,3,3′-tetraethylbenzimidazolcarbocyanide) was diluted 1:10 into MEM media according to the JC-1 Mitochondrial Membrane Potential Assay Kit: (Cayman Chemical Company, Ann Arbor, Mich.) and then 10 μL of the JC-1 dye solution was added to each well. The plates were centrifuged for 5 minutes at 400×g at room temperature followed by 40 minute incubation at 37° C. The plates were washed twice with 200 μL of provided Assay Buffer followed an addition of 100 μL of Assay Buffer to each well. The plates were read with an excitation and emission of 560 nm and 595 nM for red fluorescence and with an excitation and emission of […] and 535 nM for green fluorescence to determine the final JC-1 value taking the red to green fluorescence ratio. This assay is based on change in mitochondrial membrane potential (MMP) using this lipophilic cationic dye, JC-1, by monitoring the changes in the ratio of red to green fluorescence as the MMP depolarizes. This change in MMP reflects the health of the cell with healthy, viable cells have a high JC-1 ratio and high MMP whereas apoptotic, unhealthy cells have a low JC-1 ratio or low MMP.
For the ability of compounds to reverse the stress due to serum deprivation and increase the JC-1 ratio, the percent maximal intensity in JC-1 ratio was normalized to that induced by the peak value for 10 μM dimebolin and plotted against the compound concentration to calculate EC50 values and to control for plate-to-plate variability. Concentration-response data were analyzed using GraphPad Prism (San Diego, Calif.); the EC50 values were derived from a single curve fit to the mean data of n=2-3, in duplicates.
All compounds were dissolved in dimethyl sulfoxide at 10 mM stock solutions and tested at a concentration that the dimethyl sulfoxide levels never exceeded 1%.

[4] = system: primary postnatal (P0) cortical cells; assay: Neurite Outgrowth Assay (neuroprotection against Aβ1-42-induced reduction of neurite outgrowth); assay type: cell-based, rat; settings: for % Attenuation Effect of 5 μM Aβ 1-42: 5 μM Aβ1-42, 3 days, compound pretreatment about 5 hours; for Emax at 0.3 µM / Emax at 3 µM: Rattus norvegicus, relative to 300 nM dimebolin, read-out: Maximum Effect (of % 300 nM Dimebolin) at Concentration; for Emax at 0.3 µM: maximum response at 300 nM test compound; for Emax at 3 µM: maximum response at 3000 nM test compound
Experimental: In addition to PC12 cells, other cellular model systems may also be used. Rat cortical cells can be cultured and prepared for high content microscopy analysis as previously described (Hu, M.; Schurdak, M. E.; et al. High content screen microscopy analysis of Aβ1-42-induced neurite outgrowth reduction in rat primary cortical neurons: Neuroprotective effects of α7 neuronal nicotinic acetylcholine receptor ligands. Brain Res. 2007, 1151, 227-235.). Briefly, cortical cell cultures are plated at density of 5×10^5 cells/mL onto poly-D-lysine coated 96-well plates and maintained in a cell incubator at 37° C. with 5% CO2. Experiments are performed using 6-7 day-old cortical cell cultures by treating with test compounds. In some experiments, the effect of test compounds on reversing Aβ toxicity can also be measured (Hu, M.; Schurdak, M. E.; et al. High content screen microscopy analysis of Aβ1-42-induced neurite outgrowth reduction in rat primary cortical neurons: Neuroprotective effects of α7 neuronal nicotinic acetylcholine receptor ligands. Brain Res. 2007, 1151, 227-235.). For assessment of neuroprotective effects, cells are first pretreated with test compounds for about 5 hours. Medium is then replaced with the medium containing freshly prepared about 5 μM Aβ1-42 peptide in the absence or presence of the test compounds for 3 days. The untreated group contains the same percentage of vehicle (DMSO) as in the treatment groups. Cells are fixed with approximately 4% paraformaldehyde containing 0.5% Hoechst 33342 for about 15 minutes, followed by three washes using PBS (pH 7.4) and blocked with 10% donkey serum in PBS for 1 hour at room temperature. The cells are then incubated overnight at about 4° C. with mouse anti-tubulin monoclonal antibody (1:100) for staining neurons and rabbit anti-GFAP (1:1000) for staining glia. In the next day, cells are incubated with FITC-labeled anti-mouse and TRITC-labeled anti-rabbit antibodies (1:1000) for about 1 hour at room temperature. After fixing and staining the cells, nuclei (360/400 nm excitation and 465/300 nm emission filters), neuron (475/350 nm excitation and 535/400 nm emission filters) and glial cell (535 nm excitation and 610 nm emission filters) images are collected using the ImageExpress Micro automatic fluorescent microscopy system (Molecular Devices, Sunnyvale, Calif.) employing a Nikon 10× Plan Fluor objective and Cool Snap HQ CCD camera. The Neurite Outgrowth module in the MetaMorph Imaging software can be used to automatically count total cell number, number of neuron cells, and the extent of neurite outgrowth.
The neurite outgrowth observed for untreated cells is set to 100% response. Treatment of cells with compounds prior to and concomitantly with Aβ1-42 gave a neuroprotective effect with neurite outgrowth maintained or enhanced relative to untreated cells.

mice = assay: Inhibitory Avoidance in Mouse (24-hour recall); assay type: in vivo; settings: 24 hours after initial exposure, 0.001, 0.01, 0.1, and 1.0 mg/kg i.p., versus control
Experimental: Inhibitory Avoidance in Mouse: The inhibitory avoidance task involves the uses of a two-compartment step through apparatus (Ugo Basile, Collegeville, Pa.) that measures the animal's ability to remember a brief noxious stimulus (foot shock), and is considered a measure of trial learning, and memory consolidation. Briefly, 30 minutes after dosing, mice were placed in a lighted compartment of the apparatus where the latency to enter into the preferred dark compartment is recorded. Entry into a dark compartment results in the immediate delivery of a mild foot shock (0.2 mA, 1-second duration). Retention testing is conducted 24 hours later with the animal again placed in the lighted compartment where its latency to reenter the dark side of the apparatus is measured (no shock). Increasing retention latency is regarded as an index of memory consolidation (Bitner, R. S.; Bunnelle, W. H.; et al. Broad-spectrum efficacy across cognitive domains by α7 nicotinic acetylcholine receptor agonism correlates with activation of ERK1/2 and CREB phosphorylation pathways. J. Neurosci. 2007, 27 (39), 10578-10587.). […] (*p<0.05; **p<0.01, ***p<0.001 versus control)

[5] = Homo sapiens, SK-N-SH, percent maximal JC-1 ratio normalized to peak value for 10 μM dimebolin

SMILES | Emax [3, 5] [%] | EC50 ([3]; Homo sapiens, SK-N-SH) [µM] | % Attenuation Effect of 5 μM Aβ 1-42 [4] [%] | also measured
Cc1ccc2c(c1)c1c(n2CCc2ccc(C)nc2)CCN(C)C1 [dimebolin, 2,3,4,5-tetrahydro-2,8-dimethyl-5-[2-(6-methyl-3-pyridinyl)ethyl]-1H-pyrido[4,3-b]indole] | – | – | – | neurite outgrowth [1]: increase neurite outgrowth; clinical course of disease, improvement over baseline for ADAS-Cog ([2]; 20 mg three times a day (60 mg/day)): significant improvement; most frequent adverse event ([2]; recently reported clinical studies): dry mouth
c1cnc2ccc(-c3cccc4c5c([nH]c34)C3CCN(CC3)C5)cc2c1 [Example 27, 7-quinolin-6-yl-3,4,5,6-tetrahydro-1H-2,5-ethanoazepino[4,3-b]indole] | 133 | 6.39 | 38 | Emax at 0.3 µM [4]: 109%
Clc1ccc(/C=C/c2cccc3c4c([nH]c23)C2CCN(CC2)C4)cc1 [Example 4, 7-[(E)-2-(4-chlorophenyl)vinyl]-3,4,5,6-tetrahydro-1H-2,5-ethanoazepino[4,3-b]indole] | 123 | 4.09 | – | –
Cc1ccc(/C=C/c2cccc3c4c([nH]c23)C2CCN(CC2)C4)cn1 [Example 1, 7-[(E)-2-(6-methylpyridin-3-yl)vinyl]-3,4,5,6-tetrahydro-1H-2,5-ethanoazepino[4,3-b]indole] | 139 | 6.02 | 34 | latency to reenter the dark side (punishment side) (mice): significantly increased; also recorded: concentration-dependent improvement; Emax at 3 µM [4]: 106%
Cc1ccc(C#Cc2cccc3c4c([nH]c23)C2CCN(CC2)C4)cn1 [Example 3, 7-[(6-methylpyridin-3-yl)ethynyl]-3,4,5,6-tetrahydro-1H-2,5-ethanoazepino[4,3-b]indole] | 188 | 4.36 | 43 | latency to reenter the dark side (punishment side) (mice): significantly increased; also recorded: concentration-dependent improvement; Emax at 3 µM [4]: 115%
Cc1ccc(/C=C/c2ccc3[nH]c4c(c3c2)CN2CCC4CC2)cn1 [Example 8, 9-[(E)-2-(6-methylpyridin-3-yl)vinyl]-3,4,5,6-tetrahydro-1H-2,5-ethanoazepino[4,3-b]indole] | 162 | 4.05 | 49 | Emax at 0.3 µM [4]: 121%
Cc1ccc(CCc2cccc3c4c([nH]c23)CN2CCC4CC2)cn1 [Example 33, 9-[2-(6-methylpyridin-3-yl)ethyl]-3,4,5,10-tetrahydro-1H-2,5-ethanoazepino[3,4-b]indole] | 197 | 6.01 | – | –
Cc1ccc(/C=C/c2cccc3c4c([nH]c23)C2CC[N+]([O-])(CC2)C4)cn1 [Example 28, 7-[(E)-2-(6-methylpyridin-3-yl)yinyl]-1,2,3,4,5,6-hexahydro-2,5-ethanoazepino[4,3-b]indole 2-oxide] | – | – | – | JC-1 max % ([3]; percent maximal JC-1 ratio normalized to peak value for 10 μM dimebolin): 50%; EC50 [3]: > 30 µM
Cc1ccc(/C=C/c2cc(F)cc3c4c([nH]c23)C2CCN(CC2)C4)cn1 [Example 25, 9-fluoro-7-[(E)-2-(6-methylpyridin-3-yl)vinyl]-3,4,5,6-tetrahydro-1H-2,5-ethanoazepino[4,3-b]indole] | 127 | 3.42 | – | –
Cc1ccc(/C=C/c2cccc3[nH]c4c(c23)CN2CCC4CC2)cn1 [Example 18, 10-[(E)-2-(6-methylpyridin-3-yl)vinyl]-3,4,5,6-tetrahydro-1H-2,5-ethanoazepino[4,3-b]indole] | 173 | 3.1 | – | –
C(=C\c1cccc2c3c([nH]c12)C1CCN(CC1)C3)/c1ccccc1 [Example 19, 7-[(E)-2-phenylvinyl]-3,4,5,6-tetrahydro-1H-2,5-ethanoazepino[4,3-b]indole] | 64 | 3.52 | – | –
C(=C\c1cccc2c3c([nH]c12)C1CCN(CC1)C3)/c1ccsc1 [Example 6, 7-[(E)-2-thien-3-ylvinyl]-3,4,5,6-tetrahydro-1H-2,5-ethanoazepino[4,3-b]indole] | 67 | 6.62 | – | –
C(=C\c1cccc2c3c([nH]c12)C1CCN(CC1)C3)/c1cncnc1 (single isomer, unassigned) [Example 29, 7-[(E)-2-(pyrimidin-5-yl)vinyl]-3,4,5,6-tetrahydro-1H-2,5-ethanoazepino[4,3-b]indole] | 54 | 5.33 | – | –
